The nature of data set [1]: Solubility in butyl ether (Example 4 repeated). It is filed as physicochemical. From the text:
(§1) The use of MIBK plus 0.064 M tri-octyl/decyl amine as an organic phase was studied.
The experiment of Example 4 was repeated using butyl ether as organic solvent.

Data set [2] in a line: Solubility in MIBK plus 0.064 M tri-octyl/decyl amine. It is filed as physicochemical.
Description: as §1

The text on data set [3]:
An aqueous solution of fumaric acid was extracted with methyl isobutyl ketone (MIBK).

Data set [4] is described as follows: Solubility in octanol (Example 4 repeated). The format is physicochemical.
Description: as §1
The experiment of Example 4 was repeated using octanol as organic solvent.

For `O=C(O)/C=C/C(=O)O` [fumaric acid], the “Acid Concentration” value in data set [1] (water 0.0005 moles/liter) is 0.0023 mol/L; in data set [1] (water 0.084 moles/liter) it was 0.0036 mol/L; in data set [2] (nearly anhydrous), 0.115 mol/L; in data set [2] (water saturated), 0.158 mol/L; in data set [4] (water 0.066 moles/liter), 0.0614 mol/L; in data set [4] (water 1.54 moles/liter) it was 0.0899 mol/L. For the same compound, in data set [4] (water 2.24 moles/liter), the “Acid Concentration” value was 0.0961 mol/L. In addition, the “solubility relative to the level observed at saturation level of water” value in data set [3] is recorded as “less than 1/5th”. The “amount of acid in MIBK extract” value in data set [3] (MIBK extract before stripping, […] by weight water) amounted to 0.0874 mol/L. Also, in data set [3] (dry mibk), the “solubility of the acid in the ketone” value came to 15.8 mM.

These data come from patent US5104492A, “Recovery of carboxylic acids from water by precipitation from organic solutions” (The Regents of the University of California, priority 1990, dated 1992).
